Columns and labels:
mosquito larvae = test: whole plant or invertebrate; details: concentration 10 mg/kg, 24 h
Procedure, shortened: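 Early fourth-instar Culex pipiens pallens larvae from an indoor colony, 10 per beaker, exposed to test compound at 5 ppm in water, diluted from a 1000 ppm acetone mother solution. Blank: water containing 0.5 mL test solvent.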

potato late blight = test: microbe, parasite or virus in culture; type: cell-based
Alternaria solani = test: Fungicidal (bactericidal) activity in vitro, PDA colony diameter; type: cell-based; details: 50 mg/kg
Rhizoctonia cereali = test: as above; type: cell-based; details: 50 mg/kg
Phytophthora capsici = test: as above; type: cell-based; details: 50 mg/kg
[1] = system: tobacco mosaic virus (TMV); test: Anti-TMV in vivo inactivation; design: species or system tobacco mosaic virus (host Nicotiana tabacum L.cv.Xanthi NN)
[2] = system: tobacco mosaic virus (TMV); test: Anti-TMV in vivo therapeutic effect; design: species or system tobacco mosaic virus (host Nicotiana tabacum L.cv.Xanthi NN)
Fusarium fujikuroi = test: Fungicidal (bactericidal) activity in vitro, PDA colony diameter; type: cell-based; details: 50 mg/kg
[3] = system: Colletotrichum orbiculare; test: as above; type: cell-based; details: 50 mg/kg
armyworms = type: in vivo; details: concentration 600 mg/kg
Bipolaria maydis = test: organism not typed; type: cell-based; details: 50 mg/kg
Rhizoctonia solani = test: Fungicidal (bactericidal) activity in vitro, PDA colony diameter; type: cell-based; details: 50 mg/kg
[4] = system: tobacco mosaic virus (TMV); test: Anti-TMV in vivo protective effect; design: species or system tobacco mosaic virus (host Nicotiana tabacum L.cv.Xanthi NN)
Fusarium graminearumt = test: microbe, parasite or virus in culture; type: cell-based; details: 50 mg/kg
Sclerotinia scleotiorum = test: Fungicidal (bactericidal) activity in vitro, PDA colony diameter; type: cell-based; details: 50 mg/kg
Cercospora arachidicola = test: as above; type: cell-based; details: 50 mg/kg
cucumber fusarium wilt = test: as above; type: cell-based; details: 50 mg/kg
Macrophoma kawatsukai = test: as above; type: cell-based; details: 50 mg/kg
cotton bollworms = test: whole plant or invertebrate; details: concentration 600 mg/kg
Experimental: Experimental method of cotton bollworms: feed and drug mixing method: measure 3 mL of prepared solution and add it to about 27 g of newly prepared feed, thereby obtaining needed concentration through dilution by 10 times.

corn borers = details: concentration 600 mg/kg
14 kinds of fungi = test: Bactericidal activity, overall statements on Table 2; type: cell-based; details: Table 2, 50 mg/kg
From the text: In vitro test method (Alternaria solani is taken for example. Alternatively, other fungi may be used): Inoculate Alternaria solani to PDA culture medium, culture it for 7 days, prepare […] bacteria plates from colony edge by a puncher, inoculate […] and drug-free PDA culture media, culture them for 4 days, measure colony diameter, compare with the control group and calculate the inhibition percentage of the drug.

[5] = system: tobacco mosaic virus (TMV); test: Anti-TMV in vitro effect (half-leaf soaking); type: cell-based, tobacco mosaic virus (host Nicotiana tabacum L.cv.Xanthi NN)
Botrytis cinerea = test: Fungicidal (bactericidal) activity in vitro, PDA colony diameter; type: cell-based; details: 50 mg/kg

C[C@@H]1N[C@H](C(=O)NN=Cc2ccc(Cl)c(Cl)c2)Cc2c1[nH]c1ccccc21 [Ic-7, (1S, 3S)—N′-(3,4-dichlorobenzylidene)-1-methyl-2,3,4,9-tetrahydropyridino [3,4-b] indol-3-formylhydrazine]
Mosquito larvae Mortality (%) (mosquito larvae): 10%
Bactericidal activity (%) potato late blight (potato late blight): 65.2%
Bactericidal activity (%) Alternaria solani (Alternaria solani): 71.4%
Bactericidal activity (%) Rhizoctonia cereali (Rhizoctonia cereali): 97.3%
Bactericidal activity (%) Phytophthora capsici (Phytophthora capsici): 84.8%
Relative inhibition rate (%) In vivo inactivation ([1]; treatment dose 100 μg/mL): 20.4%
Relative inhibition rate (%) In vivo inactivation ([1]; treatment dose 500 μg/mL): 55.2%
Relative inhibition rate (%) In vivo therapy ([2]; treatment dose 100 μg/mL): 23.5%
Relative inhibition rate (%) In vivo therapy ([2]; treatment dose 500 μg/mL): 48.9%
Bactericidal activity (%) Fusarium fujikuroi (Fusarium fujikuroi): 70.6%
Bactericidal activity (%) Colletotrichum orbiculare [3]: 80.0%
Armyworm Mortality (%) (armyworms): 5%
Bactericidal activity (%) Bipolaria maydis (Bipolaria maydis): 80.0%
Bactericidal activity (%) Rhizoctonia solani (Rhizoctonia solani): 62.5%
Relative inhibition rate (%) In vivo protection ([4]; treatment dose 100 μg/mL): 14.8%
Relative inhibition rate (%) In vivo protection ([4]; treatment dose 500 μg/mL): 48.1%
Bactericidal activity (%) Fusarium graminearumt (Fusarium graminearumt): 76.9%
Bactericidal activity (%) Sclerotinia scleotiorum (Sclerotinia scleotiorum): 84.6%
Bactericidal activity (%) Cercospora arachidicola (Cercospora arachidicola): 72.7%
Bactericidal activity (%) Cucumber fusarium wilt (cucumber fusarium wilt): 77.3%
Bactericidal activity (%) Macrophoma kawatsukai (Macrophoma kawatsukai): 97.0%
Cotton bollworm Mortality (%) (cotton bollworms): 30%
Corn borer Mortality (%) (corn borers): 5%
bactericidal activity against fungi (in words) (14 kinds of fungi): very good bactericidal activity against various kinds of fungi
Relative inhibition rate (%) In vitro activity ([5]; treatment dose 100 μg/mL): 15.1%
Relative inhibition rate (%) In vitro activity ([5]; treatment dose 500 μg/mL): 50.7%
Bactericidal activity (%) Botrytis cinerea (Botrytis cinerea): 80.6%

C[C@@H]1N[C@H](C(=O)NN=Cc2ccc(C(C)(C)C)cc2)Cc2c1[nH]c1ccccc21 [Ic-2, (1S, 3S)—N′-(4-tert-butylbenzylidene)-1-methyl-2,3,4,9-tetrahydropyridino [3,4-b] indol-3-formylhydrazine]
Mosquito larvae Mortality (%) (mosquito larvae): 20%
Bactericidal activity (%) potato late blight (potato late blight): 76.0%
Bactericidal activity (%) Alternaria solani (Alternaria solani): 70.0%
Bactericidal activity (%) Rhizoctonia cereali (Rhizoctonia cereali): 98.0%
Bactericidal activity (%) Phytophthora capsici (Phytophthora capsici): 73.7%
Relative inhibition rate (%) In vivo inactivation ([1]; treatment dose 100 μg/mL): 13.3%
Relative inhibition rate (%) In vivo inactivation ([1]; treatment dose 500 μg/mL): 50.3%
Relative inhibition rate (%) In vivo therapy ([2]; treatment dose 100 μg/mL): 18.2%
Relative inhibition rate (%) In vivo therapy ([2]; treatment dose 500 μg/mL): 47%
Bactericidal activity (%) Fusarium fujikuroi (Fusarium fujikuroi): 57.1%
Bactericidal activity (%) Colletotrichum orbiculare [3]: 77.8%
Armyworm Mortality (%) (armyworms): 10%
Bactericidal activity (%) Bipolaria maydis (Bipolaria maydis): 84.0%
Bactericidal activity (%) Rhizoctonia solani (Rhizoctonia solani): 88.2%
Relative inhibition rate (%) In vivo protection ([4]; treatment dose 100 μg/mL): 21.7%
Relative inhibition rate (%) In vivo protection ([4]; treatment dose 500 μg/mL): 53.8%
Bactericidal activity (%) Fusarium graminearumt (Fusarium graminearumt): 41.4%
Bactericidal activity (%) Sclerotinia scleotiorum (Sclerotinia scleotiorum): 94.1%
Bactericidal activity (%) Cercospora arachidicola (Cercospora arachidicola): 82.4%
Bactericidal activity (%) Cucumber fusarium wilt (cucumber fusarium wilt): 65.4%
Bactericidal activity (%) Macrophoma kawatsukai (Macrophoma kawatsukai): 97.2%
Cotton bollworm Mortality (%) (cotton bollworms): 30%
Corn borer Mortality (%) (corn borers): 5%
bactericidal activity against fungi (in words) (14 kinds of fungi): very good bactericidal activity against various kinds of fungi
Relative inhibition rate (%) In vitro activity ([5]; treatment dose 100 μg/mL): 17.6%
Relative inhibition rate (%) In vitro activity ([5]; treatment dose 500 μg/mL): 52.4%
Bactericidal activity (%) Botrytis cinerea (Botrytis cinerea): 86.4%

— US10208033B2, “β-carboline, dihydro-β-carboline and tetrahydro-β-carboline alkaloid derivatives and preparation methods same and use in aspects of preventing and treating plant viruses, fungicides and insecticides” (NANKAI UNIVERSITY, priority 2013, dated 2019)
